{"source": "patent US20190376142A1", "about": "“METHOD TO DISTINGUISH TUMOR SUPRESSIVE FOXO ACTIVITY FROM OXIDATIVE STRESS” (KONINKLIJKE PHILIPS N.V., priority 2016, published 2019)", "key": {"[1]": {"test_system": "FOXO activity in Human Umbilical Vein Endothelial Cells (HUVEC)", "experiment": "Computational FOXO model on HUVEC with 4OHT-inducible FOXO3.A3-ER (GSE16573)", "assay_type": "cell-based", "text": "A. The Bayesian network structure used as a basis for the modeling approach shown as a simplified model of the transcriptional program of a cellular signal transduction pathway, consisting of three types of nodes: transcription factor, target gene and microarray probe sets corresponding to target genes. B. Training of the computational FOXO3 model on a public GEO dataset GSE16573, consisting of Affymetrix microarray 2.0 Plus expression data from HUVEC containing a 4OHT-inducible FOXO3.A3-ER expression construct. Each bar represents a sample analysis result.\nThe probabilistic relations in the Bayesian network model were made quantitative using experimental data to enable quantitative reasoning on new experimental samples."}, "[2]": {"test_system": "FOXO3 activity in EGFR-mutant HCC827 lung cancer cell line", "experiment": "Computational FOXO model on drug-treated HCC827 cells (GSE51212)", "conditions": "HCC827 treated with drug vs untreated (FOXO scored inactive); public dataset GSE51212", "description": "(§1) Public datasets from samples that were treated with drugs targeting growth factor pathways. A. GEO GSE51212. […] B. GEO GSE30516 dataset.\n(§2) Once the model has been calibrated, it could be used on microarray (Affymetrix HG-U133Plus2.0) data of new tumor samples by entering probeset measurements as observations in the bottom layer, and inferring backwards in the model the activity probability of the FOXO3 transcription factor. The model was frozen and applied to microarray data of cell line and tissue samples by entering probeset measurements as observations into the model, inferring backwards FOXO transcription factor activity score as the log-2 value of the FOXO transcription factor odds p/(1−p).\n(§3) Parameters enforcing relationships between the FOXO transcription complex and target genes were manually set to improve generalization behavior of the model across different tissue types (11). Parameters describing relationships between target genes and their respective probe sets were calibrated on a public data set of Human Umbilical Vein Endothelial Cells (HUVEC) carrying inducible constitutively active FOXO3.A3-ER, and a threshold for FOXO-activity was set (GSE16573) (20)."}, "[3]": {"test_system": "FOXO activity in BT20 (triple-negative breast cancer cell line)", "experiment": "Computational FOXO model on Erlotinib-treated BT20 cells (GSE30516)", "conditions": "BT20 treated with Erlotinib; public dataset GSE30516", "description": "as §1, §2, §3"}, "[4]": {"test_system": "FOXO activity in MCF7 (ER positive breast cancer cell line)", "experiment": "Computational FOXO model on Erlotinib-treated MCF7 cells (GSE30516)", "conditions": "MCF7 treated with Erlotinib; public dataset GSE30516", "description": "as §1, §2, §3"}, "[5]": {"test_system": "FOXO activity in MDA-MB-453 (HER2 positive breast cancer cell line)", "experiment": "Computational FOXO model on Erlotinib-treated MDA-MB-453 cells (GSE30516)", "conditions": "MDA-MB-453 treated with Erlotinib; public dataset GSE30516", "description": "as §1, §2, §3"}}}
{"smiles": "CC/C(=C(\\c1ccc(O)cc1)c1ccc(OCCN(C)C)cc1)c1ccccc1", "note": "[4OHT]", "values": [{"measurement": "FOXO activity predicted by the Bayesian model", "setting": "[1]; HUVEC-FOXO3.A3-ER treated with 4OHT", "result": "highly active FOXO"}, {"measurement": "FOXO activity predicted by the Bayesian model", "setting": "[1]; HUVECs expressing FOXO3.A3-ER-H212R (reduced DNA binding) treated with 4OHT", "result": "low FOXO3 activity"}, {"measurement": "FOXO activity predicted by the Bayesian model", "setting": "[1]; HUVECs without construct, treated with 4OHT", "result": "low FOXO activity"}]}
{"smiles": "Cn1c(=O)n(-c2ccc(C(C)(C)C#N)cc2)c2c3cc(-c4cnc5ccccc5c4)ccc3ncc21", "note": "[BEZ235]", "values": [{"measurement": "FOXO3 activity scored by the FOXO model", "setting": "[2]", "result": "scored active"}]}
{"smiles": "C#Cc1cccc(Nc2ncnc3cc(OCCOC)c(OCCOC)cc23)c1", "note": "[Erlotinib]", "values": [{"measurement": "FOXO activity score", "setting": "[3]", "result": "increased"}, {"measurement": "FOXO activity score", "setting": "[4]", "result": "increased"}, {"measurement": "FOXO activity score", "setting": "[5]", "result": "increased"}]}
